Measured values reported in PubChem BioAssay AID220 (DTP/NCI, 2004).
Records with an inconclusive call do not appear.

System: CD8F1 mice, subcutaneous mammary adenocarcinoma, T/C%
Assay: NCI In Vivo Anticancer Drug Screen. Data for tumor model Mammary Adenocarcinoma CD8F1 (subcutaneous) in CD8F1
Settings: higher = larger tumour
Outline: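 Antitumor activity is assessed in transplantable-tumor mice by comparing the treated group with a vehicle-treated control group. Survival or tumor size serves as the measure, reported as T divided by C.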

[1] = endpoint: median tumor weight change, dose: 125.0 mg/kg/injection, schedule: Q01DX001 (ip), vehicle: saline with Tween-80
[2] = endpoint: median tumor weight (est.), dose: 25.0 mg/kg/injection, schedule: Q07DX005 (ip), vehicle: saline
[3] = endpoint: median tumor weight (est.), dose: 50.0 mg/kg/injection, schedule: Q07DX005 (ip), vehicle: saline
[4] = endpoint: median tumor weight (est.), dose: 100.0 mg/kg/injection, schedule: Q07DX005 (ip), vehicle: saline
[5] = endpoint: median tumor weight (est.), dose: 400.0 mg/kg/injection, schedule: Q07DX005 (ip), vehicle: saline
[6] = endpoint: median tumor weight (est.), dose: 50.0 mg/kg/injection, schedule: Q07DX005 (ip), vehicle: saline with Tween-80
[7] = endpoint: median tumor weight (est.), dose: 100.0 mg/kg/injection, schedule: Q07DX005 (ip), vehicle: saline with Tween-80
[8] = endpoint: median tumor weight change, dose: 500.0 mg/kg/injection, schedule: Q01DX001 (ip), vehicle: saline with Tween-80

With O=C(O)CCCCCCCC(=O)O the T/C (endpoint: median tumor weight change, dose: 225.0 mg/kg/injection, schedule: Q01DX001 (ip), vehicle: distilled water + Tween-80) was 122 % of control and the T/C (endpoint: median tumor weight change, dose: 450.0 mg/kg/injection, schedule: Q01DX001 (ip), vehicle: distilled water + Tween-80) was 82 % of control.

In the case of CC(=O)Nc1ccc(Nc2ccc(C(=C3C=CC(=[N+](C)CCC#N)C=C3)c3ccc(N(C)CCC#N)cc3)cc2)cc1, the T/C [1] is reported as 67 % of control.

With NC(C/[N+]([O-])=N/O)C(=O)O (stereo not given) the T/C (endpoint: mean tumor weight, dose: 32.0 mg/kg/injection, schedule: Q07DX006 (ip), vehicle: saline) was 47 % of control, the T/C (endpoint: mean tumor weight, dose: 64.0 mg/kg/injection, schedule: Q07DX006 (ip), vehicle: saline) was 4 % of control and the T/C (endpoint: mean tumor weight, dose: 128.0 mg/kg/injection, schedule: Q07DX006 (ip), vehicle: saline) was 32 % of control. The T/C (endpoint: mean tumor weight, dose: 256.0 mg/kg/injection, schedule: Q07DX006 (ip), vehicle: saline) was 117 % of control, the T/C (endpoint: mean tumor weight, dose: 512.0 mg/kg/injection, schedule: Q07DX006 (ip), vehicle: saline) was 7 % of control and the T/C (endpoint: mean tumor weight, dose: 1024.0 mg/kg/injection, schedule: Q07DX006 (ip), vehicle: saline) was 8 % of control. The T/C [2] was 63 % of control, the T/C [3] was 68 % of control and the T/C (endpoint: median tumor weight (est.), dose: 64.0 mg/kg/injection, schedule: Q01DX005 (ip), vehicle: saline) was 85 % of control. The T/C [4] was 57 % of control, the T/C (endpoint: median tumor weight (est.), dose: 128.0 mg/kg/injection, schedule: Q01DX005 (ip), vehicle: saline) was 92 % of control and the T/C (endpoint: median tumor weight (est.), dose: 200.0 mg/kg/injection, schedule: Q07DX005 (ip), vehicle: saline) was 56 % of control. The T/C (endpoint: median tumor weight (est.), dose: 256.0 mg/kg/injection, schedule: Q01DX005 (ip), vehicle: saline) was 51 % of control, the T/C [5] was 49 % of control and the T/C (endpoint: median tumor weight (est.), dose: 512.0 mg/kg/injection, schedule: Q01DX005 (ip), vehicle: saline) was 31 % of control. The T/C (endpoint: median tumor weight (est.), dose: 1024.0 mg/kg/injection, schedule: Q01DX005 (ip), vehicle: saline) was 63 % of control.

With [Cl][Pt+2][Cl].[NH-]C1CCC1.[NH2-] the T/C (endpoint: median tumor weight change, dose: 6.25 mg/kg/injection, schedule: Q01DX001 (ip), vehicle: suspension in saline) was 96 % of control and the T/C (endpoint: median tumor weight change, dose: 12.5 mg/kg/injection, schedule: Q01DX001 (ip), vehicle: suspension in saline) was 99 % of control.

In the case of Cn1c2nc(=O)n(-c3ccccc3)c(=O)c-2nc2c1CCCC2, the T/C (endpoint: median tumor weight (est.), dose: 12.5 mg/kg/injection, schedule: Q07DX005 (ip), vehicle: saline with Tween-80) is reported as 90 % of control, the T/C (endpoint: median tumor weight (est.), dose: 25.0 mg/kg/injection, schedule: Q07DX005 (ip), vehicle: saline with Tween-80) is reported as 108 % of control and the T/C [6] is reported as 119 % of control. For the same molecule, the T/C [7] was 100 % of control.

For O=C(O)c1ccc(SSc2ccc(C(=O)O)cn2)nc1, the T/C (endpoint: mean tumor weight, dose: 125.0 mg/kg/injection, schedule: Q07DX004 (ip), vehicle: saline) was 123 % of control, the T/C (endpoint: mean tumor weight, dose: 250.0 mg/kg/injection, schedule: Q07DX004 (ip), vehicle: saline) was 102 % of control and the T/C (endpoint: mean tumor weight, dose: 500.0 mg/kg/injection, schedule: Q07DX007 (ip), vehicle: saline) was 99 % of control.

In the case of CC(C#N)(C#N)N=Nc1ccc(Cl)cc1Cl, the T/C [1] is reported as 161 % of control, the T/C [8] is reported as 115 % of control and the T/C (endpoint: median tumor weight change, dose: 1000.0 mg/kg/injection, schedule: Q01DX001 (ip), vehicle: saline with Tween-80) is reported as 76 % of control.

CN(C)N=Nc1cn[nH]c1C(N)=O was tested, and the T/C (endpoint: median tumor weight (est.), dose: 25.0 mg/kg/injection, schedule: Q07DX005 (ip), vehicle: Klucel (hydroxypropylcellulose) (HPC)) was 97 % of control, the T/C (endpoint: median tumor weight (est.), dose: 50.0 mg/kg/injection, schedule: Q07DX005 (ip), vehicle: Klucel (hydroxypropylcellulose) (HPC)) was 56 % of control and the T/C (endpoint: median tumor weight (est.), dose: 100.0 mg/kg/injection, schedule: Q07DX005 (ip), vehicle: Klucel (hydroxypropylcellulose) (HPC)) was 73 % of control. The T/C (endpoint: median tumor weight (est.), dose: 200.0 mg/kg/injection, schedule: Q07DX005 (ip), vehicle: Klucel (hydroxypropylcellulose) (HPC)) was 57 % of control.

In the case of CN1C(=O)C(=Cc2ccc(O)cc2)C(=O)N(C)C1=O, the T/C [1] is reported as 94 % of control and the T/C [8] is reported as 165 % of control.

In the case of CC(=O)C(O)N1C(=O)C=CC1=O (stereo not given), the T/C (endpoint: median tumor weight (est.), dose: 0.62 mg/kg/injection, schedule: Q07DX005 (ip), vehicle: saline) is reported as 78 % of control, the T/C (endpoint: median tumor weight (est.), dose: 1.25 mg/kg/injection, schedule: Q07DX005 (ip), vehicle: saline) is reported as 74 % of control and the T/C (endpoint: median tumor weight (est.), dose: 2.5 mg/kg/injection, schedule: Q07DX005 (ip), vehicle: saline) is reported as 77 % of control. For the same molecule, the T/C (endpoint: median tumor weight (est.), dose: 5.0 mg/kg/injection, schedule: Q07DX005 (ip), vehicle: saline) was 50 % of control.

In the case of CCCCCCCCNc1cc2c3c(c1)CCCN3CCC2, the T/C (endpoint: median tumor weight (est.), dose: 0.75 mg/kg/injection, schedule: Q07DX005 (ip), vehicle: Klucel (hydroxypropylcellulose) (HPC)) is reported as 88 % of control, the T/C (endpoint: median tumor weight (est.), dose: 1.5 mg/kg/injection, schedule: Q07DX005 (ip), vehicle: Klucel (hydroxypropylcellulose) (HPC)) is reported as 87 % of control and the T/C (endpoint: median tumor weight (est.), dose: 3.0 mg/kg/injection, schedule: Q07DX005 (ip), vehicle: Klucel (hydroxypropylcellulose) (HPC)) is reported as 81 % of control. The T/C (endpoint: median tumor weight (est.), dose: 6.0 mg/kg/injection, schedule: Q07DX005 (ip), vehicle: Klucel (hydroxypropylcellulose) (HPC)) was 103 % of control.

For CCCCCCCCCCC(OC(C)=O)C1CCC(C2CCC(C(O)CCCCCCCCCCCCC3C=C(C)OC3=O)O2)O1 (stereo not given), the T/C (endpoint: median tumor weight change, dose: 1.25 mg/kg/injection, schedule: Q01DX001 (ip), vehicle: water) was 111 % of control, the T/C (endpoint: median tumor weight change, dose: 10.0 mg/kg/injection, schedule: Q01DX001 (ip), vehicle: other) was 76 % of control and the T/C (endpoint: median tumor weight change, dose: 10.0 mg/kg/injection, schedule: Q01DX001 (ip), vehicle: water) was 164 % of control. For the same molecule, the T/C (endpoint: median tumor weight change, dose: 20.0 mg/kg/injection, schedule: Q01DX001 (ip), vehicle: other) was 41 % of control, the T/C (endpoint: median tumor weight change, dose: 40.0 mg/kg/injection, schedule: Q01DX001 (ip), vehicle: other) was 38 % of control and the T/C (endpoint: median tumor weight change, dose: 80.0 mg/kg/injection, schedule: Q01DX001 (ip), vehicle: other) was 38 % of control.

With CC(C)CC(=O)NC(C(=O)NC(C(=O)NC(CC(C)C)C(O)CC(=O)NC(C)C(=O)NC(CC(C)C)C(O)CC(=O)O)C(C)C)C(C)C (stereo not given) the T/C (endpoint: median tumor weight change, dose: 62.5 mg/kg/injection, schedule: Q01DX001 (ip), vehicle: Klucel (hydroxypropylcellulose) (HPC)) was 97 % of control.

CCN(CC)Cc1cc2[nH]c3c4ccc(Cl)cc4ncc3c2cc1OC was tested, and the T/C (endpoint: median tumor weight change, dose: 31.0 mg/kg/injection, schedule: Q01DX001 (ip), vehicle: saline with Tween-80) was 47 % of control, the T/C (endpoint: median tumor weight change, dose: 62.0 mg/kg/injection, schedule: Q01DX001 (ip), vehicle: saline with Tween-80) was 109 % of control and the T/C [1] was 118 % of control.

For c1csc(C[N+]23CN4CN(CN(C4)C2)C3)c1, the T/C (endpoint: median tumor weight change, dose: 250.0 mg/kg/injection, schedule: Q01DX001 (ip), vehicle: saline) was 80 % of control.

With CCCCCCCCCCCCCCCC(=O)Nc1ccn(C2OC(CO)C(O)C2O)c(=O)n1 (stereo not given) the T/C (endpoint: median tumor weight (est.), dose: 12.5 mg/kg/injection, schedule: Q07DX005 (ip), vehicle: saline) was 58 % of control, the T/C [2] was 63 % of control and the T/C [3] was 65 % of control. For the same molecule, the T/C [4] was 31 % of control and the T/C [5] was 14 % of control.

With COc1cc(C(=O)c2cocc2C(=O)c2ccc3c(c2)OCO3)cc(OC)c1OC the T/C (endpoint: median tumor weight change, dose: 125.0 mg/kg/injection, schedule: Q01DX001 (ip), vehicle: Klucel (hydroxypropylcellulose) (HPC)) was 92 % of control, the T/C (endpoint: median tumor weight change, dose: 250.0 mg/kg/injection, schedule: Q01DX001 (ip), vehicle: Klucel (hydroxypropylcellulose) (HPC)) was 73 % of control and the T/C (endpoint: median tumor weight change, dose: 500.0 mg/kg/injection, schedule: Q01DX001 (ip), vehicle: Klucel (hydroxypropylcellulose) (HPC)) was 62 % of control. For the same molecule, the T/C (endpoint: median tumor weight change, dose: 1000.0 mg/kg/injection, schedule: Q01DX001 (ip), vehicle: Klucel (hydroxypropylcellulose) (HPC)) was 40 % of control.

In the case of C=C1C(=O)C2=CC1CCC(=O)C1(C)CCC(OC(C)=O)C(C)(C)C1CC2O (stereo not given), the T/C (endpoint: median tumor weight change, dose: 37.5 mg/kg/injection, schedule: Q01DX001 (ip), vehicle: Klucel (hydroxypropylcellulose) (HPC)) is reported as 83 % of control, the T/C (endpoint: median tumor weight change, dose: 75.0 mg/kg/injection, schedule: Q01DX001 (ip), vehicle: Klucel (hydroxypropylcellulose) (HPC)) is reported as 88 % of control and the T/C (endpoint: median tumor weight change, dose: 150.0 mg/kg/injection, schedule: Q01DX001 (ip), vehicle: Klucel (hydroxypropylcellulose) (HPC)) is reported as 30 % of control.

CC(=O)NC(Cc1ccc(F)cc1)C(=O)O (stereo not given) was tested, and the T/C [6] was 117 % of control, the T/C [7] was 80 % of control and the T/C (endpoint: median tumor weight (est.), dose: 200.0 mg/kg/injection, schedule: Q07DX005 (ip), vehicle: saline with Tween-80) was 68 % of control. For the same molecule, the T/C (endpoint: median tumor weight (est.), dose: 800.0 mg/kg/injection, schedule: Q07DX005 (ip), vehicle: saline with Tween-80) was 153 % of control.

For C=C(C)C(=NC(C)(C)C)Nc1ccccc1, the T/C (endpoint: median tumor weight change, dose: 62.5 mg/kg/injection, schedule: Q01DX001 (ip), vehicle: saline with Tween-80) was 92 % of control, the T/C [1] was 60 % of control and the T/C (endpoint: median tumor weight change, dose: 250.0 mg/kg/injection, schedule: Q01DX001 (ip), vehicle: saline with Tween-80) was 96 % of control.
